How the values were obtained:
caecal contents = assay: In vitro gas production with caecal contents; type: cell-based, pigs
Experimental: After 30 days of adaptation, animals were slaughtered. […] Regarding the caecal contents, one part was immediately sampled, dispensed in 20 ml tubes, frozen in liquid nitrogen and stored at −80° C. to use as frozen inoculum for in vitro gas production studies. The other part was directly used as fresh fermentation inoculum.
The microbial fermentation pattern of caecal contents was studied in vitro by the gas production technique (Theodorou et al., 1994. Anim Feed Sci Technol 48:185-1-97). […] Firstly, triplicate glass bottles (110 mL total volume) for each treatment were filled with 56 mL incubation solution. Caecal contents of each of the 3 pigs for each treatment were mixed 2:1 with the incubation solution under CO2 atmosphere and homogenized for few minutes with waring blender (ceacal contents implies a 0.20 of total incubation solution). Then, 24 mL of the mixture were added to each bottle to complete the 80 mL total liquid volume. In addition, triplicate bottles without substrate were also included as blanks. Bottles were sealed under a CO2 stream and incubated at 39° C. for 12 h. Pressure was recorded every two hours throughout the incubation period, by means of an HD 2124.02 manometer fitted with a TP804 pressure gauge (Delta Ohm, Caselle di Selvazzano, Italy). Readings were converted into volume by a pre-established linear regression equation between the pressure recorded in the same bottles under the same conditions and known air volumes (n=103; R2=0.996). The gas volume recorded for each incubation time was expressed per unit of incubated organic matter (OM). Methane (CH4) concentration was measured on every 6 h interval. At 6 and 12 h incubation samples were collected and either acidified 1:1 with 0.1N HCl or added to 0.5 ml of a deproteinizing mixture of 0.5 M PO4H3 with 2 mg/ml 4-methyl valeric acid, that were stored at −20° C. for determination of ammonia and volatile fatty acid (VFA) concentration, respectively. Note that the procedure of the in vitro gas production was the same for both fresh inocula and frozen inocula, with the only difference that the frozen samples of caecal contents were previously maintained at 38° C. for 5 min for thawing.
For gas production, results were analyzed for each incubation time as a split-plot design, considering the donor pig as a block, the contents (fresh vs. frozen) as the main plot and the treatment as the subplot. […] Differences were considered significant when P<0.05, and a trend for significance was considered when 0.05 ? P<0.10 and, when significant, differences were compared by the Tukey t test at P<0.05.

ileal microbiota = assay: Broiler feeding trial, ileal microbiota 16S rRNA sequencing; type: in vivo, chickens; conditions: Groups B and C; T2 and T3, significant for T2 only, P<0.0001
Source text: Each group was sampled three times (i.e., S1=14 days, S2=28 days, S3=38/42 days) in specific days corresponding to when the feed will be changed along the feeding program.
During each sampling (i.e., S1, S2 and S3) a total of 40 birds/group were humanely euthanized and 9 litter samples will be collected (i.e., 3 samples/group).
16S rRNA gene PCR amplification and sequencing. The V3-V4 hypervariable region of the 16S rRNA gene was PCR-amplified using 341F and 785R primers with Illumina overhang adaptors sequences. Amplicons purification was performed by using AMPure XP Beads magnetic beads (Beckman Coulter, Brea, CA). For the indexed library preparation, the Nextera XT DNA Library Prep Kit (Illumina, San Diego, CA) was used. A further magnetic beads purification step was performed and libraries quantified using the Qubit 3.0 fluorimeter (Invitrogen), then pooled at 4 nM. The library pool was denatured with NaOH 0.2 N and diluted to 6 μM. […]
Bioinformatics and statistics. […] After chimera sequences removal, high-quality reads were filtered and binned into high-resolution operational taxonomic units (OTUs) according to the taxonomic threshold of 99% through an open-reference strategy performed with dada2 (Callahan et al, 2016). […] Alpha diversity was measured using Faith PD index and number of observed OTUs. […]

[1] = Broiler feeding trial, cecal 1H-NMR metabolomic analysis; type: in vivo, chickens
Experimental: A total of 63 samples have been provided to the Bio-NMR Group of Department of Agricultural and Food Science and Interdepartmental Centre for Industrial Agri-Food Research (CIRI) of University of Bologna, Italy, including 21 cecal samples, collected from the first time point, 21 from the second time point and 21 from the third time were available.
Preliminary analysis were performed on 63 samples subdivided as follows: control samples (A) fed with 10 mg/kg of Vit. B2, treated samples (B) fed with 50 mg/kg of Vit. B2, treated samples (C) fed with 100 mg/kg of Vit. B2. Samples were prepared for nuclear magnetic resonance (NMR) analysis by vortex mixing for 5 minutes stool with 1 mL of deionized water, followed by centrifugation for 10 minutes at 14,000 rpm and 4° C. About […] of supernatant was added to 100 μL of a D2O 1.5 M phosphate buffer solution containing 0.1% TSP (3-(trimethylsilyl)propionic acid-d4), NaN3 2 mM, set at pH 7.40. Before analysis, samples were centrifuged for 10 minutes again and then 590 uL transferred into an NMR tube.
Proton NMR (^1H-NMR) spectra were recorded at 298 K with an AVANCE III spectrometer (Bruker, Milan, Italy) operating at a frequency of 600.13 MHz. The Hydrogen Deuterium Oxide (HOD) residual signal was suppressed by presaturation, whereas broad signals from slowly tumbling molecules were removed by including a Carr-Purcell-Meiboom-Gill filter27 to a free induction decay sequence. The filter was made up by a train of 400 echoes separated by 800 μs, for a total time of 328 ms. Each spectrum was acquired by summing up 256 transients using 32 K data points over a 7211.54-Hz spectrum (for an acquisition time of 2.27 seconds). The recycle delay was set to 8 seconds, keeping into consideration the longitudinal relaxation time of the protons under investigation. Each spectrum was processed with Top Spin 3.0 (Bruker) by using an automatic command apk0.noe, which performs in one shot the baseline and phase correction and by applying a line-broadening factor of 1 Hz. […]

SMILES: Cc1cc2nc3c(=O)[nH]c(=O)nc-3n(C[C@H](O)[C@H](O)[C@H](O)CO)c2cc1C [Vitamin B2, riboflavin]
- CH4 production as volume per unit of incubation substrate (caecal contents; 6 and 12 h incubation, ranking, no significant differences): lowest accumulate CH4
- concentration of total VFA, molar proportions of VFA, ammonia concentration (caecal contents; among treatments): No differences were recorded
- CH4 proportion of total gas (caecal contents; up to 12 h incubation, numerical, no significant differences (P>0.05)): the lowest
- volume of gas (caecal contents; vs control, 4, 10 and 12 h incubation, P<0.05): higher
- ileal species richness (observed OTUs) (ileal microbiota): increase in terms of species richness
- cecal propionate (1H-NMR integral area) ([1]; groups A, B, C, T0, T1, T2): A tendency to increase
- cecal butyrate (1H-NMR integral area) ([1]; groups A, B, C, T0, T1, T2 (14, 28, 38/42 days)): not affected by both treatment and time
- cecal uracil (1H-NMR integral area) ([1]; samples C (100 mg/kg Vit. B2) vs others): always higher than the others

Source: patent US12508280B2, “Formulations for improving gut health” (DSM IP ASSETS B.V., priority 2018, dated 2025)
